Where a name gives a salt, the structure may show the parent alone. Read-outs that look alike come from different tables or passages of the source.
Columns and labels:
[1] = molecular target: T1, α1A Human Adrenergic Receptor (Homo sapiens, UniProt P25100); assay: Radioligand binding, [3H]prazosin, cloned human α1A adrenergic receptor; conditions: pKi alpha-1 1a
T1 construct: The entire coding region of α1A (1719 bp); expressed in transfected cells
T1 sequence (P25100 1-572): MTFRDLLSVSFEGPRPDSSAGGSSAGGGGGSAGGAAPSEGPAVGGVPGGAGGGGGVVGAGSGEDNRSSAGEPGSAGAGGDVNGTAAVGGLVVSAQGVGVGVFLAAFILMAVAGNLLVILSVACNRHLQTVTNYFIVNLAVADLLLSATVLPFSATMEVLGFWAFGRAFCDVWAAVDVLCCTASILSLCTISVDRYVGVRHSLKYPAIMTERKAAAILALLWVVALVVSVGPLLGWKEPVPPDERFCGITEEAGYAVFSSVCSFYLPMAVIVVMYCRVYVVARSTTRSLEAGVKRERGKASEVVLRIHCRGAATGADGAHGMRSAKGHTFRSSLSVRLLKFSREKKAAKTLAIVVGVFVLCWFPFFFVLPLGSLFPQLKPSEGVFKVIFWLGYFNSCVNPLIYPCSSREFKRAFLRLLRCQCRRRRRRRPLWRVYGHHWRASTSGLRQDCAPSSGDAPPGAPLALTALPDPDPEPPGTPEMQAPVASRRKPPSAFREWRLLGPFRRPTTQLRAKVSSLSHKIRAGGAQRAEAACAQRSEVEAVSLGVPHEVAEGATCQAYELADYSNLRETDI
Procedure, shortened: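 Membranes from LM(tk−) cells transfected with cloned human α1A receptor, prepared in 50 mM Tris-HCl, 1 mM MgCl2, 0.1% ascorbic acid pH 7.5, were incubated with 0.5 nM [3H]prazosin at 37° C for 20 min. Nonspecific binding was defined with 10 μM phentolamine; bound ligand was separated by GF/B filtration.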

[2] = molecular target: T2, α1C Human Adrenergic Receptor (Homo sapiens, UniProt P35348); assay: Radioligand binding, [3H]prazosin, cloned human α1C adrenergic receptor
T2 construct: The entire coding region of α1C (1401 bp); expressed in transfected cells
T2 sequence (P35348 1-466): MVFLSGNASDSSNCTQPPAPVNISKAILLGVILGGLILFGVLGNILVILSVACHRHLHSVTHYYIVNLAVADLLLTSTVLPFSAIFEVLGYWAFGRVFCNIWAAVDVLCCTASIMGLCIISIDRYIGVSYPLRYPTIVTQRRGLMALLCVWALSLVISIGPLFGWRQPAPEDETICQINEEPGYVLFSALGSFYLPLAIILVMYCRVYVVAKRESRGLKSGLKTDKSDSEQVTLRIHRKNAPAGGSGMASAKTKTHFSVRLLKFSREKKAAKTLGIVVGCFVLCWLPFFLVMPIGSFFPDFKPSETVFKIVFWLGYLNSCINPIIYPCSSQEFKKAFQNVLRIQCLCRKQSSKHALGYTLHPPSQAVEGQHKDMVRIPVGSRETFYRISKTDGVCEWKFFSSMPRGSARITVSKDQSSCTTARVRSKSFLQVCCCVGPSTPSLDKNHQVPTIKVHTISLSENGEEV
Procedure, shortened: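 Stably transfected mouse LM(tk−) fibroblast membranes bearing the cloned human α1C adrenoceptor served as receptor source. Specific binding was taken as the portion of 0.5 nM [3H]prazosin displaceable by 10 μM phentolamine after 20 min at 37° C., pH 7.5, in Mg2+/ascorbate-containing Tris buffer.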

[3] = molecular target: T3, α1B Human Adrenergic Receptor (Homo sapiens, UniProt P35368); assay: Radioligand binding, [3H]prazosin, cloned human α1B adrenergic receptor
T3 construct: The entire coding region of α1B (1563 bp); expressed in transfected cells
T3 sequence (P35368 1-520): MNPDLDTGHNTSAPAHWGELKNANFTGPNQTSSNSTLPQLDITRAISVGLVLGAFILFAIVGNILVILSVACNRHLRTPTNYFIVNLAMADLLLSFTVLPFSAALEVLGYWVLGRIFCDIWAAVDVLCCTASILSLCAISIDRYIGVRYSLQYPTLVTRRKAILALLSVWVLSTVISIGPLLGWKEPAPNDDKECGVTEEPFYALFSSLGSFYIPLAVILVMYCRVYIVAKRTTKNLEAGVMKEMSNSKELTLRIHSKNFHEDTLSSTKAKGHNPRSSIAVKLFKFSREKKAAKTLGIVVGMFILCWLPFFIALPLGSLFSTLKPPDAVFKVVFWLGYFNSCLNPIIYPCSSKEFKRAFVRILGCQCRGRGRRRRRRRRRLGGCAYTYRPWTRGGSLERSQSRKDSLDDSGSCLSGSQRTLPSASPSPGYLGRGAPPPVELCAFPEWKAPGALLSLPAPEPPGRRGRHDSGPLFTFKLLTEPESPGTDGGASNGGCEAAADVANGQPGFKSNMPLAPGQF
Procedure, shortened: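 Membranes from stably transfected LM(tk−) cells, resuspended in 50 mM Tris-HCl, 1 mM MgCl2, 0.1% ascorbic acid, pH 7.5, were incubated with 0.5 nM [3H]prazosin for 20 min at 37° C. Nonspecific binding defined with 10 μM phentolamine; bound ligand separated by GF/B filtration.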

[4] = [3H]prazosin, cloned human α1A receptor, LM(tk−) cell membranes
[5] = pKi alpha-1 1c, cloned human α1C receptor, LM(tk−) cell membranes
[6] = pKi alpha-1 1b, cloned human α1B receptor, LM(tk−) cell membranes
[7] = [3H]prazosin, cloned human receptor in LM(tk-) cell membranes, SEM and n in lines below
[8] = pKi alpha-1 1c, cloned human receptor in LM(tk-) cell membranes, SEM and n in lines below
[9] = pKi alpha-1 1b, cloned human receptor in LM(tk-) cell membranes, SEM and n in lines below
[10] = cloned human receptor in LM(tk-) cell membranes, SEM and n in lines below, read-out: pKi alpha-1 1c (converted)
[11] = cloned human receptor in LM(tk-) cell membranes, SEM and n in lines below, read-out: pKi alpha-1 1b (converted)
[12] = cloned human α1C receptor, LM(tk−) cell membranes, read-out: pKi alpha-1 1c (converted)
[13] = cloned human α1B receptor, LM(tk−) cell membranes, read-out: pKi alpha-1 1b (converted)

Structure (SMILES): CCC1=C(C(N)=O)C(c2ccc([N+](=O)[O-])cc2)C(C(=O)NCCCN2CCC(C#N)(c3ccccc3)CC2)=C(CC)N1 (racemic) [(±)-102, 5-Carboxamido-3-{N-[(4-cyano-4-phenylpiperidin-1-ly)propyl]carboxamido-2,6-diethyl-1,4-dihydro-4-(4-nitrophenyl)pyridine hydrochloride hydrate]
- Ki [1, 4]: 3470 nM
- Ki [2, 5]: 3.8 nM
- Ki [3, 6]: 1620 nM

Structure (SMILES): CCC1=C(C(N)=O)C(c2ccc([N+](=O)[O-])cc2)C(C(=O)NCCCN2CCC(C#N)(c3ccccc3)CC2)=C(CC)N1 (single isomer, unassigned; (+)) [(+)-102]
- Ki [1, 4]: 2880 nM
- Ki [2, 5]: 2.63 nM
- Ki [3, 6]: 1230 nM

Structure (SMILES): CCC1=C(C(N)=O)C(c2ccc([N+](=O)[O-])cc2)C(C(=O)NCCCN2CCC(C#N)(c3ccccc3)CC2)=C(CC)N1 (single isomer, unassigned; (-)) [(−)-102]
- Ki [1, 4]: 6760 nM
- Ki [2, 5]: 112 nM
- Ki [3, 6]: 3160 nM

Structure (SMILES): CCC1=C(C(=O)NCCCN2CCC(c3ccccc3)(c3ccccc3)CC2)C(c2ccc([N+](=O)[O-])cc2)C(C(=O)OCc2ccccc2)=C(C)N1 (stereo not drawn) [Example 4, 5-Benzyloxycarbonyl-2-ethyl-1,4-dihydro-6-methyl-4-(4-nitrophenyl)-3-(N-(3-(4,4-diphenylpiperidin-1-yl)propyl)carboxamido) pyridine, Hydrochloride Salt, Hydrate]
- Ki [1, 7]: 195 nM
- Ki [2, 8]: 67.6 nM
- Ki [3, 9]: 129 nM

Structure (SMILES): COC(=O)C1=C(C)NC(C)=C(C(=O)NCCCN2CCC(c3ccccc3)(c3ccccc3)CC2)C1c1ccc2ccccc2c1 (stereo not drawn) [Example 22]
- Ki [1]: 741 nM
- Ki [2, 10]: 36.3 nM
- Ki [3, 11]: 138 nM

Structure (SMILES): COC(=O)C1=C(C)NC(C)=C(C(=O)NCCCN2CCC(c3ccccc3)(c3ccccc3)CC2)C1c1ccc([N+](=O)[O-])c(C)c1 (stereo not drawn) [Example 28]
- Ki [1, 7]: 437 nM
- Ki [2, 10]: 9.55 nM
- Ki [3, 9]: 240 nM

Structure (SMILES): CC1=C(C#N)C(c2ccc([N+](=O)[O-])cc2)C(C(=O)NCCCN2CCC(c3ccccc3)(c3ccccc3)CC2)=C(C)N1 (stereo not drawn) [Example 37]
- Ki [1]: 692 nM
- Ki [2, 10]: 22.9 nM
- Ki [3, 11]: 200 nM

Structure (SMILES): COC(=O)C1=C(C)NC(c2ccoc2)=C(C(=O)NCCCN2CCC(c3ccccc3)(c3ccccc3)CC2)C1c1ccc([N+](=O)[O-])cc1 (stereo not drawn) [Example 43, 2-(Furan-3-yl)-, 4-dihydro-5-methoxycarbonyl-6-methyl-4-(4-nitrophenyl)-3-(N-(3-(4,4-diphenylpiperidin-1-yl)propyl)carboxamidopyridine, hydrochloride salt]
- Ki [1, 7]: 316 nM
- Ki [2, 8]: 2.4 nM
- Ki [3, 9]: 182 nM

Structure (SMILES): COC(=O)C1=C(C)NC(C)=C(C(=O)N(C)CCCN2CCC(c3ccccc3)(c3ccccc3)CC2)C1c1ccc([N+](=O)[O-])cc1 (stereo not drawn) [Example 46, hydrochloride hemihydrate]
- Ki [1]: 501 nM
- Ki [2, 10]: 20.4 nM
- Ki [3, 11]: 240 nM

Structure (SMILES): COC(=O)C1=C(C)NC(C)=C(C(=O)NCCN2CCC(c3ccccc3)(c3ccccc3)CC2)C1c1ccc([N+](=O)[O-])cc1 (stereo not drawn) [Example 52, 1,4-Dihydro-3-methoxycarbonyl-2,6-dimethyl-4-(4-nitrophenyl)-5-{N-[2-(4,4-diphenylpiperidin-1-yl)ethyl]}carboxamidopyridine hydrochloride hemihydrate]
- Ki [1]: 1150 nM
- Ki [2, 10]: 8.71 nM
- Ki [3, 11]: 77.6 nM

Structure (SMILES): CC1=C(C(N)=O)C(c2ccc([N+](=O)[O-])cc2)C(C(=O)NCCN2CCC(c3ccccc3)(c3ccccc3)CC2)=C(C)N1 (stereo not drawn) [Example 54, 5-Carboxamide-1,4-dihydro-2,6-dimethyl-4-(4-nitrophenyl)-3-{N-[2-(4,4-diphenylpiperidin-1-yl)ethyl]}carboxamidopyridine hydrochloride hydrate]
- Ki [1, 7]: 347 nM
- Ki [2, 8]: 12.3 nM
- Ki [3, 9]: 174 nM

Structure (SMILES): CCC1=C(C(=O)NCCCN2CCC(c3ccccc3)(c3ccccc3)CC2)C(c2ccc([N+](=O)[O-])cc2)C(C(=O)OC)=C(C)N1 (stereo not drawn) [Example 73, 2-Ethyl-1,4-dihydro-5-methoxycarbonyl-6-methyl-4-(4-nitro) phenyl-3-(N-(3-(4,4-diphenylpiperidin-1-yl)propyl))carboxamidopyridine]
- Ki [1]: 204 nM
- Ki [2, 10]: 0.661 nM
- Ki [3, 11]: 148 nM

Structure (SMILES): COC(=O)C1=C(C)NC(c2ccccc2)=C(C(=O)NCCCN2CCC(c3ccccc3)(c3ccccc3)CC2)C1c1ccc([N+](=O)[O-])cc1 (stereo not drawn) [Example 78, 1,4-Dihydro-5-methoxycarbonyl-6-methyl-4-(4-nitro)phenyl-2-phenyl-3-(N-(3-(4,4-diphenylpiperidin-1-yl)propyl))carboxamidopyridine hydrochloride hydrate]
- Ki [1]: 178 nM
- Ki [2, 10]: 4.27 nM
- Ki [3, 11]: 110 nM

Structure (SMILES): CCC1=C(C(=O)NCCCN2CCC(c3ccccc3)(c3ccccc3)CC2)C(c2ccc([N+](=O)[O-])cc2)C(C(N)=O)=C(C)N1 (stereo not drawn) [Example 81, 5-carboxamido-2-ethyl-1,4-dihydro-6-methyl-4-(4-nitro)phenyl-3-(N-(3-(4,4-diphenylpiperidin-1-yl)propyl))carboxamidopyridine hydrochloride]
- Ki [1, 7]: 407 nM
- Ki [2, 8]: 1.91 nM
- Ki [3, 9]: 240 nM

Structure (SMILES): CCOC(=O)C1=C(CC(=O)NCCCN2CCC(c3ccccc3)(c3ccccc3)CC2)NC(C)=C(C(=O)OC)C1c1ccc([N+](=O)[O-])cc1 (stereo not drawn) [Example 89, 3-Ethoxycarbonyl-1,4-dihydro-5-methoxycarbonyl-6-methyl-4-(4-nitro)phenyl-2-(N-(3-(4,4,-diphenylpiperidin-1-yl)propyl)carboxamido)methylpyridine, fumarate salt]
- Ki [1]: 347 nM
- Ki [2, 12]: 501 nM
- Ki [3, 13]: 141 nM

Structure (SMILES): COC(=O)C1=C(C)N(C)C(C)=C(C(=O)OCCCN2CCC(c3ccccc3)(c3ccccc3)CC2)C1c1ccc([N+](=O)[O-])cc1 (stereo not drawn) [Example 92, 1,4-Dihydro-5-methoxycarbonyl-1,2,6-trimethyl-4-(4-nitrophenyl)-3-[3-(4,4-diphenylpiperidin-1-yl)propoxy]carbonylpyridine hydrochloride hydrate]
- Ki [1]: 209 nM
- Ki [2, 12]: 3.09 nM
- Ki [3, 13]: 58.9 nM

Source: patent publication US6608086B2, “Dihydropyridines and new uses thereof” (Synaptic Pharmaceutical Corporation, priority 1993, dated 2003)
